# Measured values reported in ChEMBL document CHEMBL1201862, “PubChem BioAssay data set” (2004).
# The source made the active and inactive calls.
# Columns and labels:
# [1] = target: T1, Polyadenylate-binding protein 1 (Homo sapiens, UniProt P11940); test: PABP1 MLLE–PAM2 binding inhibitor potency, dose response, biochemical, fluorescence polarization, FITC-PAM2 peptide (AID 602259); assay type: functional; details: read-out: IC50_Mean
# [2] = target: T1, Polyadenylate-binding protein 1; test: PABP1 MLLE–PAM2 interaction inhibitors, dose response, miRNA deadenylation inhibitor project, biochemical, fluorescence polarization, Cy5-PAM2 peptide, secondary (AID 602260); assay type: functional; details: read-out: IC50_Mean
# [3] = target: T2, Heat shock factor protein 1 (Mus musculus, UniProt P38532); test: HSF1 potentiators in luciferase reporter cells, confirmation, cell-based, NIH3T3, luminescence, dose retest (AID 435004); assay type: functional;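 further: stress induced by proteasome inhibitor MG132 added 30 min after compound; luciferase reporter driven by HSF1 response element in NIH3T3 cells; actives raise luminescence as potentiators of the MG132 stress response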
# T2 sequence (P38532 whole entry): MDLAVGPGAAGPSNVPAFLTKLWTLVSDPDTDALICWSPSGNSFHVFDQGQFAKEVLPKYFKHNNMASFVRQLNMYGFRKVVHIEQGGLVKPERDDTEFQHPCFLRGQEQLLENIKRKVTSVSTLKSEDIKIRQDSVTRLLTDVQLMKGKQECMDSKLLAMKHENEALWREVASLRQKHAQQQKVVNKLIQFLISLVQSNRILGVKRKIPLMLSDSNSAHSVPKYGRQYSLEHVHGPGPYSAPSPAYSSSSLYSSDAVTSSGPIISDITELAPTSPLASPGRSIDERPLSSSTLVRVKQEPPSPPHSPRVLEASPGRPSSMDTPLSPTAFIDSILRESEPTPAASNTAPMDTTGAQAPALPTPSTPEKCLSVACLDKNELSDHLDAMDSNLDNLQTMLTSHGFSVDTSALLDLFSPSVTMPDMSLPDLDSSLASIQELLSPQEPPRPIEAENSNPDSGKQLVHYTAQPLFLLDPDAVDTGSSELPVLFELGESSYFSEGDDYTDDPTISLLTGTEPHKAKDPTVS
# [4] = target: Cytochrome P450 2C9 (Homo sapiens, UniProt P11712)
# [5] = target: Cytochrome P450 3A4 (Homo sapiens, UniProt P08684);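 further: CYP3A4 tested as one member of a cytochrome P450 panel screen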
# [6] = growth suppression of PTEN-null colon cells, dose response, cell-based, HCT116 PTEN knockout (AID 1047); assay type: functional;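 further: HCT116 colon tumor cells with PTEN knocked out; cells exposed to compound for 60 hours before readout; potency for loss of cell viability measured by luminescence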
# [7] = test system: INS1; test: beta cell apoptosis inhibitors, cytokine rescue, dose response, luminescence, retest (AID 449756); assay type: functional, cell-based; details: Rattus norvegicus;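 further: cell death triggered by IL-1 beta plus TNF-alpha plus IFN-gamma mixture; protective hits raise ATP signal compared with cytokine alone wells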
# [8] = growth suppression of beta-catenin-knockout colon cells, dose response, cell-based, HCT116, human colon tumor (AID 1045); assay type: functional;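 further: HCT116 colon tumor cells with beta catenin knocked out; cells exposed to compound for 60 hours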
# [9] = Luminescence Cell-Based Dose Retest to Confirm Inhibitors of Cancer Stem Cells. [Related pubchem assays (depositor defined):AID2717, AID2721]; assay type: functional; details: Homo sapiens
# [10] = HepG2 cell cytotoxicity, dose response, cytotoxicity control for Shn3 inhibitor project, CellTiter-Glo, cherry-picked (AID 624134); assay type: functional, cell-based
# [11] = control 3'UTR Renilla luciferase suppression, dose response, counter-screen for Shn3 inhibitor project, cell-based, Clone20-Shn3RL, cherry-picked (AID 624133); assay type: functional
# [12] = Shn3 3'UTR reporter inhibitors, dose response, cell-based, Clone20 osteoblasts, firefly luciferase, cherry-picked (AID 624132); assay type: functional;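 further: firefly luciferase luminescence from reporter carrying the Shn3 3'UTR in osteoblasts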
# [13] = target: T3, Carboxy-terminal domain RNA polymerase II polypeptide A small phosphatase 1 (Homo sapiens, UniProt Q9GZU7); test: inhibitors of CTDSP1, concentration-response testing, biochemical assay, absorbance-based, actives from ultra-high-throughput screening (AID 540297); assay type: functional
# T3 sequence (Q9GZU7 whole entry): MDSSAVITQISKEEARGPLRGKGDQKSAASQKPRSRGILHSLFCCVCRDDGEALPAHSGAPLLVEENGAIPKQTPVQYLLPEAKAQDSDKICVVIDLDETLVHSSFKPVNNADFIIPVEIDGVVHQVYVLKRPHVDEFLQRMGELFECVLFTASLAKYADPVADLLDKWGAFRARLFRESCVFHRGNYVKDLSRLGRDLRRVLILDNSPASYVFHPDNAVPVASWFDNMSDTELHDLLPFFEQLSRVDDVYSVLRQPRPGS
# [14] = target: Genome polyprotein (dengue virus type 2, UniProt P29990); test: Dengue-2 NS5 methyltransferase inhibitors, primary screen, biochemical, confirmation dose response (AID 588689); assay type: functional
# [15] = test system: H9c2; test: cells; assay type: functional, cell-based; details: Rattus norvegicus, H9c2, Myocardium;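 further: confirmatory concentration-response retest of ultra-high-throughput screening hits for modulation of myocardial damage; cell death induced by hydrogen peroxide oxidative stress; compound pretreatment for 60 min then peroxide exposure for 2 h; potency is for protecting the cells against peroxide damage rather than for killing them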
# [16] = target: T2, Heat shock factor protein 1; test: inhibition of MG132-induced HSE-luciferase signal, confirmation, cell-based, NIH3T3, luminescence, dose retest (AID 2382); assay type: functional;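 further: NIH3T3 fibroblasts with HSF1-driven luciferase reporter stressed by proteasome inhibitor MG132; luminescence from HSF1-driven luciferase expression after 8 hours of MG132 stress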
# [17] = target: FAD-linked sulfhydryl oxidase ALR (Homo sapiens, UniProt P55789); test: inhibitors of human ALR sulfhydryl oxidase, dose response, biochemical, H2O2 detection, luminescence, cherry-pick (AID 493248)
# [18] = cytotoxicity toward NIH3T3 fibroblasts, dose response, counter-screen, cell-based, ATP luminescence, mouse fibroblasts (AID 2010); assay type: functional;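 further: cells exposed to compound for about 90 hours before reading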
# [19] = inhibitors of intracellular T. cruzi replication, confirmation, NIH3T3 host cells, beta-gal luminescence (AID 2044); assay type: functional, cell-based;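 further: intracellular parasites grown in NIH/3T3 mouse fibroblasts as host cells; luminescent beta-galactosidase reporter signal from transgenic T. cruzi replicating inside host cells; inhibitors lower the luminescence signal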
# [20] = target: T4, Protein RecA (Mycobacterium tuberculosis, UniProt P9WHJ3); test: Fluorescence Cell-Free Homogeneous Dose Retest to Identify Inhibitors of RecA-Intein Splicing Activity. [Related pubchem assays (depositor defined):AID2097, AID2223, AID489010, AID492950]; assay type: functional
# T4 sequence (P9WHJ3 whole entry): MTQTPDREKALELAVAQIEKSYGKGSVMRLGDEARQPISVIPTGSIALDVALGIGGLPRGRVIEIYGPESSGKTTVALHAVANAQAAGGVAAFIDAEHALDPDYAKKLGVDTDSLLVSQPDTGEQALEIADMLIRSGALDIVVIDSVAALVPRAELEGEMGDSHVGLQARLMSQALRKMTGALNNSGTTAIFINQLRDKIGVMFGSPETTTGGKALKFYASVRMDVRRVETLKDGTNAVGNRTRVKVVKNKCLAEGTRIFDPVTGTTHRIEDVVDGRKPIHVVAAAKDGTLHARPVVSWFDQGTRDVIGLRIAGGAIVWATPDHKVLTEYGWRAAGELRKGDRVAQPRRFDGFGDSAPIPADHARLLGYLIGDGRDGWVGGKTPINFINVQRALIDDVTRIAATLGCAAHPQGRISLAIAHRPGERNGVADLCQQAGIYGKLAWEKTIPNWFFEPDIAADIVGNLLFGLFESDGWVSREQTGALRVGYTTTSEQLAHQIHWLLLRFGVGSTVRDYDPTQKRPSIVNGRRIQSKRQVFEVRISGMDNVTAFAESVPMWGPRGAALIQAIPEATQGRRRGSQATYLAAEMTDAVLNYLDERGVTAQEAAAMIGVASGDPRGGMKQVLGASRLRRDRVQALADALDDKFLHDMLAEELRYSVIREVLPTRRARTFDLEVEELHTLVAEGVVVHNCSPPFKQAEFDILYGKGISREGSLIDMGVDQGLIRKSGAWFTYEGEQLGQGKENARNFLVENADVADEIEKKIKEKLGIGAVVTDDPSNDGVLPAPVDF
# [21] = P. falciparum Dd2 growth inhibitors, dose response, SYBR Green, cherry-picked samples (AID 1159567); assay type: functional, cell-based
# Chain of Cytochrome P450 2C9 (P11712 whole entry): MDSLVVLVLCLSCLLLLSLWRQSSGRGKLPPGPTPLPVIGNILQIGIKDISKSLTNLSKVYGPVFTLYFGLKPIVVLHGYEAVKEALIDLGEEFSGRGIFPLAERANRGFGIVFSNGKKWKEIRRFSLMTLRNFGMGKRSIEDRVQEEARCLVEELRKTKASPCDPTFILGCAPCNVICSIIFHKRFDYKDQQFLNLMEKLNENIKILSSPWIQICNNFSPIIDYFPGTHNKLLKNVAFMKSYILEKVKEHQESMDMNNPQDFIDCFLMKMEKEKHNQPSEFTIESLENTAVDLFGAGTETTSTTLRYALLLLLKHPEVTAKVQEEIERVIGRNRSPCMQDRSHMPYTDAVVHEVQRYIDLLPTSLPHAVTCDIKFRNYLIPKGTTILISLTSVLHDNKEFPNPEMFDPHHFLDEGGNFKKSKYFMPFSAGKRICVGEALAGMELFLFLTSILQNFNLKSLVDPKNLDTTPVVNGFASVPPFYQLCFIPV
# T1 sequence (P11940 whole entry): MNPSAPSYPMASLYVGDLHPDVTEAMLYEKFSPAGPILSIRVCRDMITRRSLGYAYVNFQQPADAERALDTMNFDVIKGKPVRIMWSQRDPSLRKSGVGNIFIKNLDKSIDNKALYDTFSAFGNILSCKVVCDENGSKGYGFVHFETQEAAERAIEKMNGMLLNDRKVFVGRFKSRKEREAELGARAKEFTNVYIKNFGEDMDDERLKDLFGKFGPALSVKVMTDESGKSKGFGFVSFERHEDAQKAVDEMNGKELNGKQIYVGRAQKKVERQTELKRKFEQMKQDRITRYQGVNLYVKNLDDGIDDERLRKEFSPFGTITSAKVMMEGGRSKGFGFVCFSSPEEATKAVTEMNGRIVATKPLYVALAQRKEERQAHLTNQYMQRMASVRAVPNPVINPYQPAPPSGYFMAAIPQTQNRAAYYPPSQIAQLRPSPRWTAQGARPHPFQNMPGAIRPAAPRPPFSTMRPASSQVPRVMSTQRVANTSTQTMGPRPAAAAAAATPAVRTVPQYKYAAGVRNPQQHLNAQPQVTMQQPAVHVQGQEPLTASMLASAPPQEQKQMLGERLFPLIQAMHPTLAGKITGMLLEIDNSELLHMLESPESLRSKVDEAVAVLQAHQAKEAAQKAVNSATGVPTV
# Chain of Genome polyprotein (P29990 2492-3391 limits assumed): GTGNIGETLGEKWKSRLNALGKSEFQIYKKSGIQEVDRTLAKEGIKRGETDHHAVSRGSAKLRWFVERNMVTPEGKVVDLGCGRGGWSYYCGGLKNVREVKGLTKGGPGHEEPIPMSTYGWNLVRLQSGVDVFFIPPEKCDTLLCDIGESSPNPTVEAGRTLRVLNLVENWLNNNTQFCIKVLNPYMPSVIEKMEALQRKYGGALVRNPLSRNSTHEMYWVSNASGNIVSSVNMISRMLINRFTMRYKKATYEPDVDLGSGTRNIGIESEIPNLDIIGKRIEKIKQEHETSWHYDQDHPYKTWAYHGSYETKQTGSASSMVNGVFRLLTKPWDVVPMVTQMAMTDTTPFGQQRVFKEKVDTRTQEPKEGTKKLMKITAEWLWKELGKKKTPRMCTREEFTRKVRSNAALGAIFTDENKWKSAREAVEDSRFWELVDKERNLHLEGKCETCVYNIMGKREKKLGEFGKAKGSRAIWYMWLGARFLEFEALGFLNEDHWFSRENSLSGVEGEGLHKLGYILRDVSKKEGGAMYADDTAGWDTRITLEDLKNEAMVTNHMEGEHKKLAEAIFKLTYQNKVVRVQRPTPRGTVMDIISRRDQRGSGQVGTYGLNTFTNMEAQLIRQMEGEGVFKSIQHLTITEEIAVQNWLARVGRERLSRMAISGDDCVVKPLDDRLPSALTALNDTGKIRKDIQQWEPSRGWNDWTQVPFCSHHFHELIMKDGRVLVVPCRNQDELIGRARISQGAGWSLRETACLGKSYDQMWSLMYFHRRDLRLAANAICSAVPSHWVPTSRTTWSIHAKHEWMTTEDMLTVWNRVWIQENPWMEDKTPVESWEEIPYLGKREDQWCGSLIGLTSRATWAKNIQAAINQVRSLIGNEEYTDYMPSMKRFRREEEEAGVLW
# Chain of Cytochrome P450 3A4 (P08684 whole entry): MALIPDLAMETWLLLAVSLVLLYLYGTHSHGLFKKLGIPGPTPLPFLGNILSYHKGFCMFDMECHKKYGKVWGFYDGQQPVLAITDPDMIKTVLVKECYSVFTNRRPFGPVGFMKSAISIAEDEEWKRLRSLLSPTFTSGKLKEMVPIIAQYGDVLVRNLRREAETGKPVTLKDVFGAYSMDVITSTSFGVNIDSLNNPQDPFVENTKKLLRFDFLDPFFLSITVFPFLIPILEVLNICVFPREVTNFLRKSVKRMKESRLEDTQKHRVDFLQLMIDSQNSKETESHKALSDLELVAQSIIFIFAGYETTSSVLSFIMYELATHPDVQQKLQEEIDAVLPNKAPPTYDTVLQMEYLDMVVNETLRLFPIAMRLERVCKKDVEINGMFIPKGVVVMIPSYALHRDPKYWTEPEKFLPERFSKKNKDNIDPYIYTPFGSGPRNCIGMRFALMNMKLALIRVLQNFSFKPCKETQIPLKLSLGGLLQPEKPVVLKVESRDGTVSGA
# Chain of FAD-linked sulfhydryl oxidase ALR (P55789 whole entry): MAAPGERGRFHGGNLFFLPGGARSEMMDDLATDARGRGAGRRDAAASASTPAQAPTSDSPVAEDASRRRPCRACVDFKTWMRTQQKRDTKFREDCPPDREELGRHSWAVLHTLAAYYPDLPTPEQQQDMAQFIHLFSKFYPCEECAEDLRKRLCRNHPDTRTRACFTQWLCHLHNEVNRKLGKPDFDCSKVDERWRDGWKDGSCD
structure (smiles),measurement,setting,value
CC(=O)c1c(S)nc(-c2ccccc2)nc1NC(=O)c1ccccc1,IC50,[1],> 66 µM (inactive)
same,IC50,[2],> 66 µM (inactive)
NC(=O)c1nsc(C(=O)N(c2ccccc2)C(C(=O)NCC2CCCO2)c2cccs2)c1N (configuration not stated),EC50,[3],> 260 µM (inactive)
O=c1cnc2cnc(N3CCOCC3)nc2n1C[C@H]1CCCO1,AC50,[4],inconclusive
same,AC50,[5],15.8 µM (inconclusive)
COc1ccc(/C=C/C(=O)C23CC4CC(CC(C4)C2)C3)cc1CN1CCOCC1,EC50,[3],46 µM (active)
CCN(CC)CCNc1ncnc2c1sc1nc(N3CCOCC3)c3c(c12)CC(C)(C)SC3,EC50,[6],8.46 µM (active)
same,AC50,[7],12.5 µM (active)
same,EC50,[8],7.85 µM (active)
same,AC50,[9],8.39 µM (active)
CC(C)C[C@@H](CO)N(Cc1ccccc1)S(=O)(=O)N(Cc1ccccc1)[C@@H](CO)CC(C)C,AC50,[10],21.9 µM (active)
same,AC50,[11],31 µM (active)
same,AC50,[12],11.4 µM (active)
same,AC50,[9],4.21 µM (active)
O=C(CN1C(=O)NC2(CCCC2)C1=O)OCc1cc(=O)n2cc(Br)ccc2n1,IC50,[13],6.81 µM (active)
CCOC(=O)c1c(C)c(C(=O)Nc2ccc3c(c2)OCO3)c(C)n1C,EC50,[3],> 260 µM (inactive)
CC(NC(=O)c1cccs1)C(S)c1ccccc1 (configuration not stated),IC50,[1],> 66 µM (inactive)
same,IC50,[2],> 66 µM (inactive)
CCNc1nc(NCC)n2c(SCC(=O)Nc3ccc(F)cc3)nnc2n1,IC50,[13],10.3 µM (active)
COCCCNc1nc2ccccc2nc1NS(=O)(=O)c1cccc(Cl)c1,IC50,[1],> 66 µM (inactive)
same,IC50,[2],> 66 µM (inactive)
O=C(O)Cn1c2ccccc2c2nnc(S)nc21,IC50,[1],> 66 µM (inactive)
same,IC50,[2],> 66 µM (inactive)
CSc1ccc(C2C(C#N)=C(N)N(c3ccccc3)C3=C2C(=O)CCC3)cc1 (configuration not stated),EC50,[3],27 µM (active)
Cc1cc(=O)oc2cc(NC(=O)c3cccc(F)c3)ccc12,IC50,[13],4.51 µM (active)
C=CCOc1ccc(CNC(C)(C)CO)cc1OCC.Cl,AC50,[4],inconclusive
CCOC(=O)C(C(=O)OCC)C(Nc1ccc(Br)cc1)c1ccccc1 (configuration not stated),EC50,[3],15.2 µM (active)
same,EC50,[6],276 µM (active)
same,AC50,[9],8.85 µM (active)
C#CCOc1ccccc1/C=C1/C(=O)ON=C1C,IC50,[14],> 100 µM (active)
O=C(CCc1nc(O)c2ccccc2n1)NCc1ccco1,IC50,[15],> 79 µM (inactive)
same,EC50,[16],> 195 µM (not active)
CS(=O)(=O)N(CC(=O)N1CCN(Cc2ccc3c(c2)OCO3)CC1)Cc1ccc(Cl)cc1,EC50,[6],497 µM (active)
same,EC50,[8],77.1 µM (active)
CCC(Sc1nnc2c3ccccc3n(CC)c2n1)C(=O)Nc1sc2c(c1C#N)CCCC2 (configuration not stated),EC50,[6],11.7 µM (active)
same,EC50,[8],10.4 µM (active)
Cc1cc(C(=O)CSc2nc(N)cc(O)n2)c(C)n1-c1cccc(F)c1,AC50,[10],> 70 µM (inactive)
same,AC50,[11],26.2 µM (active)
same,AC50,[12],1.66 µM (active)
COc1ccc(-c2nc3c(c4nnc(SC(C)C(=O)Nc5ccccc5)n24)COC(C)(C)C3)cc1 (configuration not stated),EC50,[6],9.44 µM (active)
same,EC50,[8],8.77 µM (active)
Cc1ccc(NC(=O)CSC2=NCCN2)cc1,IC50,[1],> 66 µM (inactive)
same,IC50,[2],> 66 µM (inactive)
C=CCNCCOCCSc1ccc(Cl)cc1,EC50,[3],> 260 µM (inactive)
O=C1CC(NNc2ccccc2)C(=O)N1c1ccccc1 (configuration not stated),EC50,[3],> 260 µM (inactive)
same,AC50,[17],0.382 µM (active)
COCC(C)NC(=O)/C(=C/c1ccccc1)c1ccccc1 (configuration not stated),EC50,[3],> 260 µM (inactive)
NCCc1nnc(SCc2ccc(F)cc2)o1,EC50,[3],> 260 µM (inactive)
CCCCCn1c(N)c(-c2nc3ccccc3s2)c2c([N+](=O)[O-])nn(C)c(=O)c21,EC50,[18],> 60 µM (not active)
same,EC50,[19],2.14 µM (active)
same,EC50,[6],10.1 µM (active)
same,EC50,[8],12.5 µM (active)
Cc1sc(NC(=O)CCl)c(C(=O)c2ccccc2)c1C,IC50,[1],> 66 µM (inactive)
same,EC50,[20],3.55 µM (active)
same,IC50,[2],> 66 µM (inactive)
c1ccc(SCCOCCN2CCOCC2)cc1,EC50,[3],> 260 µM (inactive)
CN(C)Cc1ccccc1-c1cc(NC2CC2)ncn1,AC50,[4],inconclusive
CC1CN(C(=O)CS(=O)(=O)Cc2ccccc2)CC(C)O1 (configuration not stated),EC50,[3],> 260 µM (inactive)
c1ccc(CN=C(NCc2ccccc2)NCc2ccccc2)cc1,AC50,[10],21.9 µM (active)
same,AC50,[11],2.06 µM (active)
same,AC50,[12],1.79 µM (active)
Cc1cc(O)c2c(c1)C(=O)[C@@]13Oc4c5c(c(O)c6c(O)cc(C)cc46)C(=O)C[C@H](O)[C@H]5[C@@H]1[C@@H](O)CC(=O)C3=C2O,IC50,[14],16.7 µM (active)
CC(C)c1ccc(NC(=O)Nc2nc(C(N)CCc3ccccc3)cs2)cc1 (configuration not stated),AC50,[10],10.6 µM (active)
same,AC50,[11],10.3 µM (active)
same,AC50,[12],5.36 µM (active)
O=C1CSC(=S)N1/N=C/c1cccnc1,IC50,[1],> 66 µM (inactive)
same,IC50,[2],> 66 µM (inactive)
Cc1[nH]n(C(N)=S)c(=O)c1/N=N/c1ccc(S(=O)(=O)N2CCCC2)cc1,IC50,[1],> 66 µM (inactive)
same,IC50,[2],> 66 µM (inactive)
CS(=O)(=O)N(CC(=O)N/N=C/c1cc([N+](=O)[O-])ccc1Cl)c1ccccc1,EC50,[6],26.4 µM (active)
same,EC50,[8],24.4 µM (active)
COC(=O)c1ccc(/C=N/NC(=O)c2cccc(F)c2)cc1,IC50,[13],11.4 µM (active)
COc1ccc(CN(C)C[C@@H]2Oc3c(NC(=O)c4ccc(-c5nccs5)cc4)cccc3C(=O)N([C@@H](C)CO)C[C@H]2C)cc1,AC50,[21],3.25 µM (active)
COc1cccc(-c2ccc3c(c2)[C@@H]2[C@@H](CCN2C(=O)C2CCCC2)[C@H](CO)N3)c1,AC50,[21],4.88 µM (active)
CO[C@@H]1CN(C)C(=O)c2ccc(NC(=O)C3CC3)cc2OC[C@@H](C)N(Cc2ccccc2)C[C@H]1C,AC50,[21],3.33 µM (active)
COc1cccc(NC(=O)N2[C@@H](CO)[C@@H](c3ccccc3)[C@@H]2CNC(C)C)c1,AC50,[21],5.06 µM (active)
COCC(=O)N1CCC2(CC1)CN(Cc1cccc(OC)c1)[C@@H](CO)c1[nH]c3cc(OC)ccc3c12,AC50,[21],7.42 µM (active)
